In ChEMBL document CHEMBL1138752, “2-Pyrazolyl-N(6)-substituted adenosine derivatives as high affinity and selective adenosine A(3) receptor agonists” (J Med Chem, 2004):

Columns and labels:
[1] = target: Adenosine receptors; A1 & A3 (Homo sapiens) (UniProt P30542+P0DMS8); experiment: Ratio of binding to adenosine A1 and adenosine A3 receptor; type: protein assay
Adenosine receptor A2a = Adenosine receptor A2a (Homo sapiens, UniProt P29274); experiment: biochemical
Description: Displacement of [3H]CGS-21680 from recombinant human adenosine A2a receptor expressed in HEK cells

[2] = target: Adenosine receptors; A2a & A3 (Homo sapiens) (UniProt P0DMS8+P29274); experiment: Ratio of binding to adenosine A2a and adenosine A3 receptor; type: protein assay
Chain of Adenosine receptors; A2a & A3 (Homo sapiens) (P29274 whole entry, looked up, one chain of several): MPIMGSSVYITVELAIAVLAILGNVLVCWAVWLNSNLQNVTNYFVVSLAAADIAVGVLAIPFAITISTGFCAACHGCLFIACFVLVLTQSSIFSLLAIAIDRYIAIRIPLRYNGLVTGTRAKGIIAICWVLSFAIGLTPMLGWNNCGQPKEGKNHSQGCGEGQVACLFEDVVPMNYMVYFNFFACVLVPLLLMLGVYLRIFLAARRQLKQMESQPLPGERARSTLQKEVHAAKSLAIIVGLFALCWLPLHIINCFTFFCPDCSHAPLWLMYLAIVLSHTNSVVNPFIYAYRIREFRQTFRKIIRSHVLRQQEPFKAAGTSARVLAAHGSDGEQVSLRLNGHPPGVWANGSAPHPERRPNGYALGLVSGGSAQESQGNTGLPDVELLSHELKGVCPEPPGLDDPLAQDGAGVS

Adenosine receptor A1 = target: T1, Adenosine receptor A1 (Homo sapiens, UniProt P30542); experiment: biochemical
T1 sequence (P30542 whole entry): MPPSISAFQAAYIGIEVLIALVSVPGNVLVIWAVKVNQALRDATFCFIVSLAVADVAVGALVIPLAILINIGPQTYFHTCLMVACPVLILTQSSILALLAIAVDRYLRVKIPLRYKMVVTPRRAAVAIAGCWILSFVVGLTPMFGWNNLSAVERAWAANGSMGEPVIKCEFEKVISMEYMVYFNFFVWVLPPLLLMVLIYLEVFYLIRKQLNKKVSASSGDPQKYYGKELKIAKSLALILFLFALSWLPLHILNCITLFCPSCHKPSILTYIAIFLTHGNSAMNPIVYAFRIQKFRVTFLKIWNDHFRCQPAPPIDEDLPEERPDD
Description: Displacement of [3H]CCPA from recombinant human adenosine A1 receptor expressed in CHO cells

Adenosine receptor A3 = target: T2, Adenosine receptor A3 (Homo sapiens, UniProt P0DMS8); experiment: biochemical
T2 sequence (P0DMS8 whole entry): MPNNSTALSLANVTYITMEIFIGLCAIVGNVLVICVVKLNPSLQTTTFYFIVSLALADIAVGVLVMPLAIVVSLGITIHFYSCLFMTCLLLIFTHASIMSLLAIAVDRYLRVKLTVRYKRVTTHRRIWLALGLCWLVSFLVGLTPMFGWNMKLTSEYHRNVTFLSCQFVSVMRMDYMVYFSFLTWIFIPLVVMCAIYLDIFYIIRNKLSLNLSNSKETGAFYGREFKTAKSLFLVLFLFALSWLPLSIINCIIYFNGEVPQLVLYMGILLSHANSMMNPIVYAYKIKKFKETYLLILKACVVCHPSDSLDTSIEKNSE
Description: Displacement of [125I]-AB MECA from recombinant human adenosine A3 receptor expressed in HEK cells

Chain of Adenosine receptor A2a (P29274 whole entry): as the sequence (P29274 whole entry, looked up, one chain of several) above

Compound | Selectivity [1] | Ki (Adenosine receptor A2a) | Selectivity [2] | Ki (Adenosine receptor A1) | Ki (Adenosine receptor A3)
OC[C@H]1OC(n2cnc3c(NCc4cccc(I)c4)nc(-n4cc(-c5ccccn5)cn4)nc32)[C@H](O)[C@@H]1O (stereo partly specified) | 24 | > 3.9 µM | > 22 | 4.2 µM | 170 nM
Nc1nc(-c2cnn(Cc3ccccc3)c2)nc2c1ncn2[C@@H]1O[C@H](CO)[C@@H](O)[C@H]1O | – | 0.0015 µM | – | – | > 10000 nM
CNc1nc(-n2cc(C(=O)NCc3ccc(Cl)cc3)cn2)nc2c1ncn2C1O[C@H](CO)[C@@H](O)[C@H]1O (stereo partly specified) | – | 4 µM | 25 | 2 µM | 157 nM
CNc1nc(-n2cc(-c3ccccn3)cn2)nc2c1ncn2[C@@H]1O[C@H](CO)[C@@H](O)[C@H]1O | – | > 5 µM | – | – | –
CCCNc1nc(-c2cnn(Cc3ccccc3)c2)nc2c1ncn2C1O[C@H](CO)[C@@H](O)[C@H]1O (stereo partly specified) | – | – | – | – | 148 nM
COc1ccc(-c2cnn(-c3nc(NCc4cccc(I)c4)c4ncn(C5O[C@H](CO)[C@@H](O)[C@H]5O)c4n3)c2)cc1 (stereo partly specified) | 14 | 4 µM | 10 | 4.5 µM | 320 nM
CNc1nc(-n2cc(-c3ccc4ccccc4n3)cn2)nc2c1ncn2C1O[C@H](CO)[C@@H](O)[C@H]1O (stereo partly specified) | > 1600 | > 5 µM | > 1600 | > 5 µM | 3 nM
CNc1nc(-n2cc(-c3nc4ccccc4o3)cn2)nc2c1ncn2C1O[C@H](CO)[C@@H](O)[C@H]1O (stereo partly specified) | 1300 | 2.5 µM | 1200 | 2.6 µM | 2 nM
CCNC(=O)c1cnn(-c2nc(NC)c3ncn(C4O[C@H](CO)[C@@H](O)[C@H]4O)c3n2)c1 (stereo partly specified) | – | – | – | – | 49 nM
CCNc1nc(-n2cc(-c3ccccn3)cn2)nc2c1ncn2[C@@H]1O[C@H](CO)[C@@H](O)[C@H]1O | – | 1.8 µM | – | – | 107 nM
CNC(=O)c1cnn(-c2nc(N)c3ncn([C@@H]4O[C@H](CO)[C@@H](O)[C@H]4O)c3n2)c1 [REGADENOSON ANHYDROUS] | – | – | – | – | > 10000 nM
OC[C@H]1OC(n2cnc3c(NCc4cccc(I)c4)nc(-n4cc(-c5nccc6ccccc56)cn4)nc32)[C@H](O)[C@@H]1O (stereo partly specified) | 7 | 0.052 µM | < 1 | 0.77 µM | 109 nM
CNC(=O)c1cnn(-c2nc(NC)c3ncn([C@@H]4O[C@H](CO)[C@@H](O)[C@H]4O)c3n2)c1 | > 80 | > 6 µM | > 80 | – | 73 nM
CCCNC(=O)c1cnn(-c2nc(NC)c3ncn(C4O[C@H](CO)[C@@H](O)[C@H]4O)c3n2)c1 (stereo partly specified) | > 200 | > 4 µM | > 200 | > 4 µM | 19 nM
CNc1nc(-n2cc(-c3cccnc3)cn2)nc2c1ncn2C1O[C@H](CO)[C@@H](O)[C@H]1O (stereo partly specified) | 900 | 4.1 µM | 2000 | 1.8 µM | 2 nM
CNc1nc(-n2cc(-c3ccncc3)cn2)nc2c1ncn2C1O[C@H](CO)[C@@H](O)[C@H]1O (stereo partly specified) | 600 | > 5 µM | > 800 | 3.8 µM | 6 nM
CCNc1nc(-n2cc(-c3ccc(OC)cc3)cn2)nc2c1ncn2[C@@H]1O[C@H](CO)[C@@H](O)[C@H]1O | 90 | 4 µM | 100 | – | 41 nM
CCCNc1nc(-n2cc(-c3ccc(OC)cc3)cn2)nc2c1ncn2C1O[C@H](CO)[C@@H](O)[C@H]1O (stereo partly specified) | 45 | 3.3 µM | 50 | 3 µM | 65 nM
CNc1nc(-n2cc(-c3ccc(OC)cc3)cn2)nc2c1ncn2[C@@H]1O[C@H](CO)[C@@H](O)[C@H]1O | > 200 | > 5 µM | > 300 | – | 15 nM
COc1ccc(-c2cnn(-c3nc(N)c4ncn([C@@H]5O[C@H](CO)[C@@H](O)[C@H]5O)c4n3)c2)cc1 | – | 0.19 µM | – | – | > 6000 nM
CNc1nc(-n2cc(-c3ccc(Cl)cc3)cn2)nc2c1ncn2C1O[C@H](CO)[C@@H](O)[C@H]1O (stereo partly specified) | > 600 | > 5 µM | > 500 | > 6 µM | 10 nM
CNc1nc(-c2cnn(Cc3ccccc3)c2)nc2c1ncn2C1O[C@H](CO)[C@@H](O)[C@H]1O (stereo partly specified) | 13 | > 5 µM | > 50 | 1.3 µM | 97 nM
